{
  "source": "ChEMBL document CHEMBL3763012",
  "about": "“From Sphingosine Kinase to Dihydroceramide Desaturase: A Structure-Activity Relationship (SAR) Study of the Enzyme Inhibitory and Anticancer Activity of 4-((4-(4-Chlorophenyl)thiazol-2-yl)amino)phenol (SKI-II)” (J Med Chem, 2016)",
  "key": {"[1]": {"molecular_target": "T1, Sphingolipid delta(4)-desaturase DES1 (Homo sapiens) (UniProt O15121)", "T1 sequence (whole entry)": "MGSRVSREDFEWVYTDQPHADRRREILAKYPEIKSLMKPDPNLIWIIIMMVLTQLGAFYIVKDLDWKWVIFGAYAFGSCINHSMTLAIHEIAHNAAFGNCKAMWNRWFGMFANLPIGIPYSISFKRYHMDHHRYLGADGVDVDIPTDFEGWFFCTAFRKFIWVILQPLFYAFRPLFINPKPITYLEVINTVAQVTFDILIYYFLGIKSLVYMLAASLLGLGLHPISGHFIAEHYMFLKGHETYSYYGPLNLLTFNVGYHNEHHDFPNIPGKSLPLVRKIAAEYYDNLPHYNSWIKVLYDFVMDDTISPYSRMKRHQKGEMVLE", "assay": "Inhibition of Des1 (unknown origin) at 30 uM"}, "[2]": {"molecular_target": "T1, Sphingolipid delta(4)-desaturase DES1 (Homo sapiens)", "assay": "Inhibition of Des1 activity in human Jurkat cells using fluorescence labeled DhCer-C6-NBD as substrate at 0.1 to 10 uM after 3 hrs by HPLC method", "format": "cell-based"}, "[3]": {"molecular_target": "T1, Sphingolipid delta(4)-desaturase DES1 (Homo sapiens)", "assay": "Inhibition of Des1 activity in human Jurkat cells using fluorescence labeled DhCer-C6-NBD as substrate at 1 and 10 uM after 3 hrs by HPLC method", "format": "cell-based"}, "[4]": {"assay": "Antiproliferative activity against human PC3 cells after 72 hrs by MTS assay", "format": "functional", "conditions": "PC-3, 72 h"}, "HEK293": {"system": "HEK293", "assay": "Induction of SK1 degradation in HEK293 cells at 10 uM after 16 hrs by western blotting analysis in presence of proteasome inhibitor MG132", "format": "functional, cell-based", "conditions": "Homo sapiens"}, "PC-3 [5]": {"system": "PC-3", "assay": "Increase in total dhCer level in human PC3 cells at 10 uM after 5 hrs by LC-MS analysis", "format": "functional, cell-based"}, "PC-3 [6]": {"system": "PC-3", "assay": "Anticlonogenic activity against human PC3 cells at 0.05 to 10 uM after 21 days by soft agar colony forming assay", "format": "functional, cell-based"}, "[7]": {"molecular_target": "T2, Sphingosine kinase 2 (Homo sapiens) (UniProt Q9NRA0)", "T2 sequence (whole entry)": "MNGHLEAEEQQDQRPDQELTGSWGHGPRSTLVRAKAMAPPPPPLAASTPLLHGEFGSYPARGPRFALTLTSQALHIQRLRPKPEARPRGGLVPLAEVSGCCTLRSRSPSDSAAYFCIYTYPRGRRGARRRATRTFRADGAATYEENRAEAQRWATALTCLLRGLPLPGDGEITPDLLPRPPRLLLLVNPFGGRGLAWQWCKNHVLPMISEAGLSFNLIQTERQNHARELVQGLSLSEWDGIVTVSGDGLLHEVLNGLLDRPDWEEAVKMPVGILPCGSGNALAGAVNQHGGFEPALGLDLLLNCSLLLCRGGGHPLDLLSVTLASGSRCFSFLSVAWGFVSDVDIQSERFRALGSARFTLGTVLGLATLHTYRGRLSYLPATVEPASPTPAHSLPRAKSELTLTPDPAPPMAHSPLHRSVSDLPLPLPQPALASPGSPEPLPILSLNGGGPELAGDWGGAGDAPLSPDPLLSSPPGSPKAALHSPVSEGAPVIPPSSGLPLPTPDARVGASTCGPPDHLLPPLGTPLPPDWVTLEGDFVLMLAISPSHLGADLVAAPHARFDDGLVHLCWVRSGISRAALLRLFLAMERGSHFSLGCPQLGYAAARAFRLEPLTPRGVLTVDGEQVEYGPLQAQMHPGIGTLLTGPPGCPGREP", "assay": "Inhibition of recombinant human SK2 assessed as production of [32P] S1P using sphingosine as substrate at 10 uM by TLC method in presence of 100 uM [gamma32P]-ATP relative to control; values are per cent of control"}, "[8]": {"assay": "Cytotoxicity against human PC3 cells after 72 hrs by MTT assay", "format": "functional", "conditions": "PC-3, 72 h"}, "[9]": {"molecular_target": "T3, Sphingolipid delta(4)-desaturase DES1 (Homo sapiens, UniProt O15121)", "T3 sequence (O15121 whole entry)": "T1 sequence (whole entry)", "assay": "Drug metabolism in human Jurkat cells assessed as DES1-mediated (2E,4E,6E,8E)-3,7-dimethyl-N-(4-oxocyclohexa-2,5-dienylidene)-9-(2,6,6-trimethylcyclohex-1-enyl)nona-2,4,6,8-tetraenamide formation", "format": "ADME, cell-based"}, "Sphingosine kinase 1 [10]": {"molecular_target": "T4, Sphingosine kinase 1 (Homo sapiens, UniProt Q9NYA1)", "T4 sequence (Q9NYA1 whole entry)": "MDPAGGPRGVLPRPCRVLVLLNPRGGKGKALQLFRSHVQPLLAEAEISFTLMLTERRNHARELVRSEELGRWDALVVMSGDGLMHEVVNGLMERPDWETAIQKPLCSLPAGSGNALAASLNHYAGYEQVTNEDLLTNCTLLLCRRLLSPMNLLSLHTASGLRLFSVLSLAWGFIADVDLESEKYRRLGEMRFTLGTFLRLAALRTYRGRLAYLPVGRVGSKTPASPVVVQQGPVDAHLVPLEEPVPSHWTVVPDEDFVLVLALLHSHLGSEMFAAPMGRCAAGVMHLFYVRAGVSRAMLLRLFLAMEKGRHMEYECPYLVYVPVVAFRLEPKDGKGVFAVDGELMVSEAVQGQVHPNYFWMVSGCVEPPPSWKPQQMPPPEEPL", "assay": "Inhibition of SK1 (unknown origin)"}, "Sphingosine kinase 2 [11]": {"molecular_target": "T5, Sphingosine kinase 2 (Homo sapiens, UniProt Q9NRA0)", "T5 sequence (Q9NRA0 whole entry)": "T2 sequence (whole entry)", "assay": "Inhibition of SK2 (unknown origin)"}, "[12]": {"molecular_target": "T1, Sphingolipid delta(4)-desaturase DES1 (Homo sapiens)", "assay": "Irreversible inhibition of Des1 activity in human Jurkat cells treated with parent compound treated with fenretinide using fluorescence labeled DhCer-C6-NBD as substrate by HPLC method", "format": "cell-based", "conditions": "TDE = time-dependent effect"}, "[13]": {"molecular_target": "T3, Sphingolipid delta(4)-desaturase DES1", "assay": "Drug level in human Jurkat cells assessed as DES1-mediated compound oxidation treated with fenretinide", "format": "ADME, cell-based"}, "Sphingosine kinase 1 [14]": {"molecular_target": "T4, Sphingosine kinase 1", "assay": "Inhibition of human SK1 using D-erythro sphingosine as substrate and gamma[33P]ATP by Lineweaver-Burk plot analysis"}, "Sphingosine kinase 2 [15]": {"molecular_target": "T5, Sphingosine kinase 2", "assay": "Inhibition of human SK2 using D-erythro sphingosine as substrate and gamma[33P]ATP by Lineweaver-Burk plot analysis"}, "Sphingosine kinase 1 [16]": {"molecular_target": "T4, Sphingosine kinase 1", "assay": "Inhibition of recombinant His-tagged human SK1 assessed as production of [32P]-S1P using 10 uM sphingosine as substrate by TLC method in presence of 1 mM [gamma32P]-ATP"}, "Sphingosine kinase 2 [17]": {"molecular_target": "T5, Sphingosine kinase 2", "assay": "Inhibition of recombinant human SK2 assessed as production of [32P] S1P using 10 uM sphingosine as substrate by TLC method in presence of 1 mM [gamma32P]-ATP relative to control"}, "[18]": {"molecular_target": "T1, Sphingolipid delta(4)-desaturase DES1 (Homo sapiens)", "assay": "Inhibition of Des1 activity in human Jurkat cells using fluorescence labeled DhCer-C6-NBD as substrate at 10 uM after 3 hrs by HPLC method", "format": "cell-based"}, "Sphingosine kinase 2 [19]": {"molecular_target": "T5, Sphingosine kinase 2", "assay": "Inhibition of recombinant SK2 (unknown origin) expressed in Sf9 cells assessed as [33P]S1P formation using D-erythro sphingosine as substrate and gamma[33P]ATP by liquid scintillation counting"}},
  "note": "Activity calls are given as the source filed them. The calls are words filed in the database; no cut-off is given here.",
  "data": [
    {"smiles": "O=C(NCc1ccncc1)C12CC3CC(C1)CC(c1ccc(Cl)cc1)(C3)C2", "values": [
      {"measurement": "inhibition", "setting": "[1]", "value": 40, "unit": "%"}
    ]},
    {"smiles": "Oc1ccc(Nc2nnc(-c3ccc(I)cc3)o2)cc1", "values": [
      {"measurement": "inhibition", "setting": "[2]", "value": "Active"}
    ]},
    {"smiles": "N/C(=N\\O)c1ccc(Nc2nnc(-c3ccc(Cl)cc3)o2)cc1", "values": [
      {"measurement": "inhibition", "setting": "[3]", "value": "Active"}
    ]},
    {"smiles": "Oc1ccc(Nc2nc(-c3ccc(Cl)cc3)cs2)cc1", "values": [
      {"measurement": "GI50", "setting": "[4]", "value": 11, "unit": "µM"},
      {"measurement": "Activity", "setting": "HEK293", "value": "Active"},
      {"measurement": "inhibition", "setting": "[2]", "value": "Active"},
      {"measurement": "Activity", "setting": "PC-3 [5]", "value": "Active"},
      {"measurement": "Activity", "setting": "PC-3 [6]", "value": "Active"},
      {"measurement": "residual activity", "setting": "[7]", "value": 90, "unit": "%"}
    ]},
    {"smiles": "CC1=C(/C=C/C(C)=C/C=C/C(C)=C/C(=O)Nc2ccc(O)cc2)C(C)(C)CCC1", "note": "[FENRETINIDE]", "values": [
      {"measurement": "GI50", "setting": "[8]", "value": 2, "unit": "µM"},
      {"measurement": "Drug metabolism", "setting": "[9]", "value": "metabolite_detected"}
    ]},
    {"smiles": "Clc1ccc(-c2nnc(Nc3ccc(-c4nn[nH]n4)cc3)o2)cc1", "values": [
      {"measurement": "GI50", "setting": "[4]", "value": 15, "unit": "µM"},
      {"measurement": "residual activity", "setting": "[7]", "value": 70, "unit": "%"}
    ]},
    {"smiles": "OC[C@H]1C[C@H](O)CN1CCCc1ccc(Nc2nc(-c3cccc(C(F)(F)F)c3)cs2)cc1", "values": [
      {"measurement": "IC50", "setting": "Sphingosine kinase 1 [10]", "value": 0.02, "unit": "µM"},
      {"measurement": "IC50", "setting": "Sphingosine kinase 2 [11]", "value": 0.148, "unit": "µM"}
    ]},
    {"smiles": "CCCCCCCc1nc(-c2ccc(CNC(=O)[C@H]3NCC[C@@H]3O)cc2)no1", "values": [
      {"measurement": "GI50", "setting": "[4]", "value": "> 100", "unit": "µM"},
      {"measurement": "Activity", "setting": "HEK293", "value": "Active"},
      {"measurement": "residual activity", "setting": "[7]", "value": 112, "unit": "%"}
    ]},
    {"smiles": "Oc1ccc(-c2nnc(-c3ccc(Cl)cc3)o2)cc1", "values": [
      {"measurement": "inhibition", "setting": "[2]", "value": "inactive"}
    ]},
    {"smiles": "Cc1cc(CS(=O)(=O)c2ccccc2)cc(OCc2ccc(CN3CCC[C@@H]3CO)cc2)c1", "values": [
      {"measurement": "GI50", "setting": "[4]", "value": 19, "unit": "µM"},
      {"measurement": "Activity", "setting": "HEK293", "value": "Active"},
      {"measurement": "residual activity", "setting": "[7]", "value": 45, "unit": "%"}
    ]},
    {"smiles": "CC1=C(/C=C/C(C)=C/C=C/C(C)=C/C(=O)N=C2C=CC(=O)C=C2)C(C)(C)CCC1", "values": [
      {"measurement": "inhibition", "setting": "[12]", "value": "tde"},
      {"measurement": "Drug metabolism", "setting": "[13]", "value": "metabolite_detected"}
    ]},
    {"smiles": "Oc1ccc(Nc2nnc(-c3ccc(Cl)cc3)o2)cc1", "values": [
      {"measurement": "inhibition", "setting": "[2]", "value": "Active"}
    ]},
    {"smiles": "Cc1ccc(S(=O)(=O)Nc2ccccc2/C=N/c2ccccc2NS(=O)(=O)c2ccc(C)cc2)cc1", "values": [
      {"measurement": "Ki", "setting": "Sphingosine kinase 1 [14]", "value": 27, "unit": "µM"},
      {"measurement": "Ki", "setting": "Sphingosine kinase 2 [15]", "value": 6.9, "unit": "µM"}
    ]},
    {"smiles": "Clc1ccc(-c2nnc(NCc3ccncc3)o2)cc1", "values": [
      {"measurement": "GI50", "setting": "[4]", "value": "> 100", "unit": "µM"},
      {"measurement": "IC50", "setting": "Sphingosine kinase 1 [16]", "value": 3.1, "unit": "µM"},
      {"measurement": "IC50", "setting": "Sphingosine kinase 2 [17]", "value": 5.5, "unit": "µM"},
      {"measurement": "residual activity", "setting": "[7]", "value": 39, "unit": "%"}
    ]},
    {"smiles": "N/C(=N\\O)c1ccc(-c2nnc(-c3ccc(Cl)cc3)o2)cc1", "values": [
      {"measurement": "inhibition", "setting": "[18]", "value": "inactive"}
    ]},
    {"smiles": "CCCCCCCCc1ccc(-c2noc([C@H]3CCCN3C(=N)N)n2)cc1", "values": [
      {"measurement": "Ki", "setting": "Sphingosine kinase 2 [19]", "value": 1.3, "unit": "µM"}
    ]}
  ]
}
